Measured values as given in the supplement of paper PMC10307832.

Assays:
Experiment in all cases: relative viability (nuclei count vs DMSO), 5 days (fraction); higher = more cells survive
AZD8055 + Palbociclib = compound: COc1ccc(-c2ccc3c(N4CCOC[C@@H]4C)nc(N4CCOC[C@@H]4C)nc3n2)cc1CO [AZD8055] + CC(=O)c1c(C)c2cnc(Nc3ccc(N4CCNCC4)cn3)nc2n(C2CCCC2)c1=O [Palbociclib] (partner 0.5 µM)
Summary of the method: (§1)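 Nuclei were stained with Hoechst during a one-step fixation (final 0.05% Triton X-100, 1% formaldehyde, 1 ug/ml Hoechst) carried out 5 days after dosing, then counted on 4× images. The cells, lung cancer lines in 1536-well plates, had been dosed by pin tool the day after seeding with one drug alone or a fixed anchor-drug dose plus five library-drug doses (not always all listed) in √10 steps. Relative viability is the nuclei count in treated wells divided by that in vehicle wells, and each value is the median of duplicate plates.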

AZD8055 + Foretinib = compound: COc1ccc(-c2ccc3c(N4CCOC[C@@H]4C)nc(N4CCOC[C@@H]4C)nc3n2)cc1CO [AZD8055] + COc1cc2c(Oc3ccc(NC(=O)C4(C(=O)Nc5ccc(F)cc5)CC4)cc3F)ccnc2cc1OCCCN1CCOCC1 [Foretinib] (partner 0.25 µM)
Summary of the method: as §1

AZD8055 + Pictilisib = compound: COc1ccc(-c2ccc3c(N4CCOC[C@@H]4C)nc(N4CCOC[C@@H]4C)nc3n2)cc1CO [AZD8055] + CS(=O)(=O)N1CCN(Cc2cc3nc(-c4cccc5[nH]ncc45)nc(N4CCOCC4)c3s2)CC1 [Pictilisib] (partner 1 µM)
Summary of the method: as §1

AZD8055 + Bortezomib = compound: COc1ccc(-c2ccc3c(N4CCOC[C@@H]4C)nc(N4CCOC[C@@H]4C)nc3n2)cc1CO [AZD8055] + CC(C)C[C@H](NC(=O)[C@H](Cc1ccccc1)NC(=O)c1cnccn1)B(O)O [Bortezomib] (partner 0.002 µM)
Summary of the method: as §1

Row | Cell Line | relative viability (AZD8055 + Palbociclib; first compound 0.01 µM) | relative viability (AZD8055 + Palbociclib; first compound 0.03162 µM) | relative viability (AZD8055 + Palbociclib; first compound 0.1 µM) | relative viability (AZD8055 + Palbociclib; first compound 0.3162 µM) | relative viability (AZD8055 + Palbociclib; first compound 1 µM) | relative viability (AZD8055 + Foretinib; first compound 0.01 µM) | relative viability (AZD8055 + Foretinib; first compound 0.03162 µM) | relative viability (AZD8055 + Foretinib; first compound 0.1 µM) | relative viability (AZD8055 + Foretinib; first compound 0.3162 µM) | relative viability (AZD8055 + Foretinib; first compound 1 µM) | relative viability (AZD8055 + Pictilisib; first compound 0.01 µM) | relative viability (AZD8055 + Pictilisib; first compound 0.03162 µM) | relative viability (AZD8055 + Pictilisib; first compound 0.1 µM) | relative viability (AZD8055 + Pictilisib; first compound 0.3162 µM) | relative viability (AZD8055 + Pictilisib; first compound 1 µM) | relative viability (AZD8055 + Bortezomib; first compound 0.01 µM) | relative viability (AZD8055 + Bortezomib; first compound 0.03162 µM) | relative viability (AZD8055 + Bortezomib; first compound 0.1 µM) | relative viability (AZD8055 + Bortezomib; first compound 0.3162 µM) | relative viability (AZD8055 + Bortezomib; first compound 1 µM)
1 | NCI-H1650 | 0.317 | 0.323 | 0.254 | 0.18 | 0.205 | 0.998 | 1.02 | 0.886 | 0.778 | 0.449 | 0.551 | 0.575 | 0.479 | 0.393 | 0.36 | 0.299 | 0.182 | 0.215 | 0.208 | 0.214
2 | NCI-H1651 | 0.507 | 0.472 | 0.478 | 0.298 | 0.253 | 0.702 | 0.774 | 0.575 | 0.363 | 0.263 | 0.664 | 0.452 | 0.433 | 0.257 | 0.283 | 1.12 | 0.914 | 0.924 | 0.609 | 0.696
3 | NCI-H1666 | 0.669 | 0.643 | 0.624 | 0.652 | 0.674 | 0.981 | 1 | 0.969 | 0.694 | 0.615 | 0.333 | 0.491 | 0.347 | 0.272 | 0.38 | 0.932 | 0.65 | 0.62 | 0.483 | 0.469
4 | NCI-H1734 | 0.378 | 0.386 | 0.288 | 0.215 | 0.192 | 0.893 | 0.748 | 0.565 | 0.312 | 0.221 | 0.427 | 0.312 | 0.295 | 0.175 | 0.199 | 0.954 | 0.729 | 0.552 | 0.278 | 0.274
5 | NCI-H1755 | 0.42 | 0.44 | 0.388 | 0.368 | 0.359 | 0.885 | 0.788 | 0.698 | 0.485 | 0.373 | 0.39 | 0.312 | 0.274 | 0.253 | 0.271 | 0.98 | 0.879 | 0.75 | 0.459 | 0.359
6 | NCI-H1915 | 0.491 | 0.44 | 0.425 | 0.282 | 0.203 | 1.12 | 1.04 | 1.01 | 0.574 | 0.527 | 0.879 | 0.715 | 0.851 | 0.706 | 0.487 | 1.09 | 0.961 | 1.02 | 0.663 | 0.652
7 | NCI-H1975 | 0.712 | 0.388 | 0.252 | 0.151 | 0.161 | 0.86 | 0.73 | 0.459 | 0.284 | 0.24 | 0.257 | 0.209 | 0.183 | 0.179 | 0.176 | 0.409 | 0.303 | 0.282 | 0.206 | 0.216
8 | NCI-H1993 | 0.596 | 0.47 | 0.39 | 0.408 | 0.404 | 0.696 | 0.584 | 0.51 | 0.503 | 0.577 | 0.752 | 0.701 | 0.892 | 0.637 | 0.896 | 0.886 | 0.706 | 0.599 | 0.568 | 0.586
9 | NCI-H2009 | 0.227 | 0.156 | 0.203 | 0.178 | 0.149 | 1.27 | 1.24 | 1.13 | 0.912 | 0.367 | 0.762 | 0.441 | 0.561 | 0.343 | 0.333 | 1.14 | 0.649 | 0.845 | 0.35 | 0.264
10 | NCI-H2023 | 0.264 | 0.229 | 0.0912 | 0.086 | 0.113 | 0.787 | 0.817 | 0.654 | 0.26 | 0.126 | 0.215 | 0.195 | 0.137 | 0.12 | 0.116 | 0.837 | 0.664 | 0.356 | 0.136 | 0.137
11 | NCI-H2085 | 0.493 | 0.448 | 0.386 | 0.37 | 0.3 | 0.945 | 0.919 | 0.602 | 0.278 | 0.329 | 0.458 | 0.394 | 0.347 | 0.319 | 0.346 | 1.11 | 0.859 | 0.705 | 0.407 | 0.357
12 | NCI-H2087 | 0.212 | 0.198 | 0.159 | 0.113 | 0.141 | 1.04 | 0.857 | 0.676 | 0.461 | 0.315 | 1.06 | 0.704 | 0.574 | 0.446 | 0.328 | 0.783 | 0.992 | 0.796 | 0.441 | 0.252
13 | NCI-H2126 | 0.323 | 0.329 | 0.362 | 0.284 | 0.323 | 1.32 | 1.05 | 0.91 | 0.575 | 0.593 | 0.478 | 0.52 | 0.385 | 0.362 | 0.415 | 1.14 | 1.08 | 1.05 | 0.676 | 0.638
14 | NCI-H2228 | 0.696 | 0.477 | 0.388 | 0.168 | 0.166 | 0.739 | 0.54 | 0.385 | 0.166 | 0.241 | 0.244 | 0.273 | 0.159 | 0.263 | 0.287 | 0.877 | 0.507 | 0.315 | 0.198 | 0.29
15 | NCI-H2347 | 0.428 | 0.44 | 0.384 | 0.346 | 0.352 | 0.804 | 0.949 | 0.454 | 0.403 | 0.386 | 0.65 | 0.601 | 0.357 | 0.322 | 0.428 | 0.704 | 0.944 | 0.598 | 0.438 | 0.401
16 | NCI-H2405 | 0.51 | 0.47 | 0.384 | 0.336 | 0.295 | 1.03 | 0.977 | 0.816 | 0.432 | 0.381 | 0.503 | 0.398 | 0.316 | 0.182 | 0.223 | 1 | 0.975 | 0.906 | 0.46 | 0.414
